Measured values: US7632833B2, “Mitotic kinesin inhibitors” (Merck & Co., Inc., priority 2004, dated 2009)

What follows are molecules tested against T1, human poly-histidine tagged KSP motor domain (KSP(367H)) (Homo sapiens, UniProt P52732) (assay: Kinesin ATPase In Vitro Assay). Conditions: not given.
T1 construct: were used to amplify the motor domain and the neck linker region; made in house; host or cells: E. coli BL21 (DE3), vector pRSETa
T1 sequence (P52732 18-359 limits assumed): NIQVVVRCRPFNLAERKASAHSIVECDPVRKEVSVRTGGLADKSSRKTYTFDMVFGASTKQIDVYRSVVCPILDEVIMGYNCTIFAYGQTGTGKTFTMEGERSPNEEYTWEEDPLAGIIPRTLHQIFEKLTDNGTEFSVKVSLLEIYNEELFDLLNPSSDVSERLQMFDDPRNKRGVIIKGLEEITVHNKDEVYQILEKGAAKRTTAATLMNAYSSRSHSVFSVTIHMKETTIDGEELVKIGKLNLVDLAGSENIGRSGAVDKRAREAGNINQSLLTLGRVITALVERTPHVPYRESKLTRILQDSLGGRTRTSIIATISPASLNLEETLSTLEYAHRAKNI
Assay type: biochemical
Description: I. Kinesin ATPase In Vitro Assay
The N-terminal primer 5′-[…] (SEQ. ID. NO.: 1) and the C-terminal primer 5′-[…] […] (SEQ. ID. NO.: 2)
were used to amplify the motor domain and the neck linker region. The PCR products were digested with AseI and XhoI, ligated into the NdeI/XhoI digestion product of pRSETa (Invitrogen) and transformed into E. coli BL21 (DE3).
Cells were grown at 37° C. to an OD600 of 0.5. After cooling the culture to room temperature expression of KSP was induced with 100 μM IPTG and incubation was continued overnight. Cells were pelleted by centrifugation and washed once with ice-cold PBS. Pellets were flash-frozen and stored −80° C.
Protein Purification: Cell pellets were thawed on ice and resuspended in lysis buffer (50 mM K-HEPES, pH 8.0, 250 mM KCl, 0.1% Tween, 10 mM imidazole, 0.5 mM Mg-ATP, 1 mM PMSF, 2 mM benzimidine, 1× complete protease inhibitor cocktail (Roche)). Cell suspensions were incubated with 1 mg/ml lysozyme and 5 mM β-mercaptoethanol on ice for 10 minutes, followed by sonication (3×30 sec). All subsequent procedures were performed at 4° C. Lysates were centrifuged at 40,000×g for 40 minutes. Supernatants were diluted and loaded onto an SP Sepharose column (Pharmacia, 5 ml cartridge) in buffer A (50 mM K-HEPES, pH 6.8, 1 mM MgCl2, 1 mM EGTA, 10 μM Mg-ATP, 1 mM DTT) and eluted with a 0 to 750 mM KCl gradient in buffer A. Fractions containing KSP were pooled and incubated with Ni-NTA resin (Qiagen) for one hour. The resin was washed three times with buffer B (Lysis buffer minus PMSF and protease inhibitor cocktail), followed by three 15-minute incubations and washes with buffer B. Finally, the resin was incubated and washed for 15 minutes three times with buffer C (same as buffer B except for pH 6.0) and poured into a column. KSP was eluted with elution buffer (identical to buffer B except for 150 mM KCl and 250 mM imidazole). KSP-containing fractions were pooled, made 10% in sucrose, and stored at −80° C.
Microtubules are prepared from tubulin isolated from bovine brain. Purified tubulin (>97% MAP-free) at 1 mg/ml is polymerized at 37° C. in the presence of 10 μM paclitaxel, 1 mM DTT, 1 mM GTP in BRB80 buffer (80 mM K-PIPES, 1 mM EGTA, 1 mM MgCl2 at pH 6.8). The resulting microtubules are separated from non-polymerized tubulin by ultracentrifugation and removal of the supernatant. The pellet, containing the microtubules, is gently resuspended in 10 μM paclitaxel, 1 mM DTT, 50 μg/ml ampicillin, and 5 μg/ml chloramphenicol in BRB80.
The kinesin motor domain is incubated with microtubules, 1 mM ATP (1:1 MgCl2: Na-ATP), and compound at 23° C. in buffer containing 80 mM K-HEPES (pH 7.0), […], 1 mM DTT, 1 mM MgCl2, and 50 mM KCl. The reaction is terminated by a 2-10 fold dilution with a final buffer composition of 80 mM HEPES and 50 mM EDTA. […] The reaction is incubated for 10 minutes at 23° C., and the absorbance of the phospho-molybdate complex is measured at 540 nm.

IC50, ≤ 30 µM:
CC(=O)C1=NN2c3cc(F)ccc3OCC2C1(CCCN(C)C)c1ccccc1 [Compound 4-13, (3R,4R) 1-{3-[3-(dimethylamino)propyl]-8-fluoro-3-phenyl-3a,4-dihydro-3H-pyrazolo[5,1-c][1,4]benzoxazin-2-yl}ethanone]
CC(=O)C1=NN2c3cc(F)ccc3OCC2C1(CCCN1CCOCC1)c1ccccc1 [Compound 4-14, (3R,4R) 1-[8-fluoro-3-(3-morpholin-4-ylpropyl)-3-phenyl-3a,4-dihydro-3H-pyrazolo[5,1-c][1,4]benzoxazin-2-yl]ethanone]
CC(=O)C1=NN2c3cc(F)ccc3OCC2C1(CCCN1CCNC(=O)CC1)c1ccccc1 [Compound 4-21, 1-{3-[(3R,4R)-2-acetyl-8-fluoro-3-phenyl-3a,4-dihydro-3H-pyrazolo[5,1-c][1,4]benzoxazin-3-yl]propyl}-1,4-diazepan-5-one]
CC(=O)C1=NN2c3cc(C)ccc3OCC2C1(CCCN1CCOCC1)c1ccccc1 [Compound 4-19, (3R,4R) 1-[8-methyl-3-(3-morpholin-4-ylpropyl)-3-phenyl-3a,4-dihydro-3H-pyrazolo[5,1-c][1,4]benzoxazin-2-yl]ethanone]

Same assay, conditions: (3R,4R) enantiomeric form tested; kinesin motor domain with microtubules, 1 mM ATP, 23° C., free phosphate by quinaldine red/ammonium molybdate; read-out: IC50

IC50, ≤ 30 µM:
COCC(=O)N1CCN(CCC[C@]2(c3ccccc3)C(C(C)=O)=NN3c4cc(F)ccc4OC[C@H]32)CC1 [Compound 4-26, 1-((3R,4R)-8-fluoro-3-{3-[4-(methoxyacetyl)piperazin-1-yl]propyl}-3-phenyl-3a,4-dihydro-3H-pyrazolo[5,1-c][1,4]benzoxazin-2-yl)ethanone]
CC(=O)C1=NN2c3cc(F)ccc3OC[C@H]2[C@@]1(CCCN1CCN(C(=O)CO)CC1)c1ccccc1 [Compound 4-25, 1-{(3R,4R)-8-fluoro-3-[3-(4-glycoloylpiperazin-1-yl)propyl]-3-phenyl-3a,4-dihydro-3H-pyrazolo[5,1-c][1,4]benzoxazin-2-yl}ethanone]
CC(=O)C1=NN2c3cc(F)ccc3OC[C@H]2[C@@]1(CCCN1CCN(C(=O)c2cc(C)on2)CC1)c1ccccc1 [Compound 4-35, 1-[(3R,4R)-8-fluoro-3-(3-{4-[(5-methylisoxazol-3-yl)carbonyl]piperazin-1-yl}propyl)-3-phenyl-3a,4-dihydro-3H-pyrazolo[5,1-c][1,4]benzoxazin-2-yl]ethanone]
COC(=O)CC(=O)N1CCN(CCC[C@]2(c3ccccc3)C(C(C)=O)=NN3c4cc(F)ccc4OC[C@H]32)CC1 [Compound 4-32, methyl 3-(4-{3-[(3R,4R)-2-acetyl-8-fluoro-3-phenyl-3a,4-dihydro-3H-pyrazolo[5,1-c][1,4]benzoxazin-3-yl]propyl}piperazin-1-yl)-3-oxopropanoate]
CNC(=O)N1CCN(CCC[C@]2(c3ccccc3)C(C(C)=O)=NN3c4cc(F)ccc4OC[C@H]32)CC1 [Compound 4-28, 4-{3-[(3R,4R)-2-acetyl-8-fluoro-3-phenyl-3a,4-dihydro-3H-pyrazolo[5,1-c][1,4]benzoxazin-3-yl]propyl}-N-methylpiperazine-1-carboxamide]
CON(C)C(=O)C1=NN2c3cc(F)ccc3OC[C@H]2[C@@]1(CCCO)c1ccccc1 [Compound 4-11, (3R,4R) 8-fluoro-3-(3-hydroxypropyl)-N-methoxy-N-methyl-3-phenyl-3a,4-dihydro-3H-pyrazolo[5,1-c][1,4]benzoxazine-2-carboxamide]
CON(C)C(=O)C1=NN2c3cc(F)ccc3OC[C@H]2[C@H]1c1ccccc1 [Compound 1-7, (3R,4R)-8-Fluoro-N-methoxy-N-methyl-3-phenyl-3a,4-dihydro-3H-pyrazolo[5,1-c][1,4]benzoxazine-2-carboxamide]
COC(=O)C(=O)N1CCN(CCC[C@]2(c3ccccc3)C(C(C)=O)=NN3c4cc(F)ccc4OC[C@H]32)CC1 [Compound 4-31, methyl (4-{3-[(3R,4R)-2-acetyl-8-fluoro-3-phenyl-3a,4-dihydro-3H-pyrazolo[5,1-c][1,4]benzoxazin-3-yl]propyl}piperazin-1-yl)(oxo)acetate]
